According to ChEMBL document CHEMBL1157472, “Synthesis of 5''-branched derivatives of cyclic ADP-carbocyclic-ribose, a potent Ca2+-mobilizing agent: The first antagonists modified at the N1-ribose moiety” (Bioorg Med Chem Lett, 2008):
Calls of active or inactive are those of the source. No cut-off for these calls is given here.

Key:
[1] = Agonist activity at ryanodine receptor in sea urchin egg homogenates assessed as effect on calcium release by fluorimetry; assay type: functional, Lytechinus pictus
Lytechinus pictus = assay: Agonist activity at ryanodine receptor in sea urchin egg homogenates assessed as effect on calcium release at 30 uM by fluorimetry; assay type: functional, tissue-based
[2] = Antagonist activity at ryanodine receptor in sea urchin egg homogenates assessed as decrease in cADPcR-induced calcium release by fluorimetry; assay type: functional, tissue-based, Lytechinus pictus
[3] = Stability in human serum at 37 degC after 3 days; assay type: ADME, cell-free; settings: read-out: Stability

Structure (SMILES)	EC50 [1] [µM]	Activity (Lytechinus pictus)	IC50 [2] [µM]	remaining at 72 h [3] [%]
Nc1c2ncn3c2nc[n+]1[C@@H]1O[C@H](COP(=O)([O-])OP(=O)(O)OC[C@H]2O[C@@H]3[C@H](O)[C@@H]2O)[C@@H](O)[C@H]1O	0.21			
NCC[C@H]1OP(=O)([O-])OP(=O)(O)OC[C@H]2O[C@H]([C@H](O)[C@@H]2O)n2cnc3c(N)[n+](cnc32)[C@@H]2C[C@H]1[C@@H](O)[C@H]2O		inactive	73	
NCC[C@@H]1OP(=O)([O-])OP(=O)(O)OC[C@H]2O[C@H]([C@H](O)[C@@H]2O)n2cnc3c(N)[n+](cnc32)[C@@H]2C[C@H]1[C@@H](O)[C@H]2O		inactive	120	
Nc1c2ncn3c2nc[n+]1[C@@H]1C[C@H](COP(=O)([O-])OP(=O)(O)OC[C@H]2O[C@@H]3[C@H](O)[C@@H]2O)[C@@H](O)[C@H]1O	0.079			

Continued, values first:

EC50 [1] [µM]	Activity (Lytechinus pictus)	IC50 [2] [µM]	remaining at 72 h [3] [%]	Structure (SMILES)
	inactive	14		[N-]=[N+]=NCC[C@H]1OP(=O)([O-])OP(=O)(O)OC[C@H]2O[C@H]([C@H](O)[C@@H]2O)n2cnc3c(N)[n+](cnc32)[C@@H]2C[C@H]1[C@@H](O)[C@H]2O
	inactive	19	89	[N-]=[N+]=NCC[C@@H]1OP(=O)(O)OP(=O)([O-])OC[C@H]2O[C@H]([C@H](O)[C@@H]2O)n2cnc3c(N)[n+](cnc32)[C@@H]2C[C@H]1[C@@H](O)[C@H]2O
